Laboratory results from patent US20240082414A1, “HUMAN TUMOR NECROSIS FACTOR ALPHA ANTIBODY GLUCOCORTICOID CONJUGATES” (Eli Lilly and Company, priority 2022, published 2024).

System: anti-drug antibodies against adalimumab
Experiment: ACE-Bridge binding to cynomolgus monkey anti-drug antibodies against adalimumab
Details: FIG. 3; AP-HIMS from monkeys hyperimmunized with adalimumab; bridging with the labeled test antibody
Procedure: Example 5a. […] The anti-adalimumab antibodies were detected using a titration of AP-HIMS in an ACE-Bridge assay. The assay was developed following the FDA Guidance on Immunogenicity testing. […] The following day, plates were washed three times with TBST and the captured anti-adalimumab antibodies were acid eluted using 65 μL/well of 300 mM acetic acid (Fisher Scientific, A38-500) for 5 min at room temperature. […] Next, 50 μL of the acid eluted samples were added to the polypropylene plate containing the mixture in neutralizing buffer and the ADA and were allowed to bridge to the labeled antibodies for 1 h at room temperature. MSD Gold 96-well streptavidin plates (Mesoscale, L15SA-1) were washed and blocked with TBS+1% BSA for 1 h at room temperature, then washed, and 80 μL of bridged samples were added to the plate for 1 h. The plates were washed three times with TBST, and 150 μL/well of 2×MSD Buffer (Mesoscale, R92TC-2) was added to the plates. Plates were read on an MSD SQ120 reader to provide the Tier 1 signal expressed as electro chemiluminescent units (ECLU).
The resulting ECLU signal was then plotted as a function of the concentration of AP-HIMS tested.

adalimumab: other anti-TNFα therapeutic antibody [reference compound]
maximum ECLU signal: 40000 ECLU
